Measured values reported in patent publication US20200397795A1, “PROPHYLACTIC TREATMENT OF VENOUS THROMBOEMBOLISM” (JANSSEN PHARMACEUTICALS, INC., priority 2019, published 2020).

Assays:
[1] = tested on: events prevented vs bleeding events caused; format: in vivo, human
Description: The same time period was utilized, preventing double counting for fatal bleeds, with all bleeds through Day 35 included (even if off treatment), and bleeding deaths were not counted as CV deaths. Using the primary endpoint, there would be 131 fewer events in the rivaroxaban group with a number-to-treat to benefit (NNT) of 77 to prevent one event, but this was counterbalanced by causing 51 more major bleeds. The benefit risk profile was improved in the subpopulation, with 182 events prevented and only 18 major bleeds caused, with NNT and number-to-treat to harm (NNH) of 55 and 560, respectively. […] More ischemic events were prevented than hemorrhagic events caused in the subpopulation in all five pairs of clinically meaningful endpoints which included asymptomatic and symptomatic VTE and VTE-related death, major bleeding, and fatal and irreversible thrombotic and bleed events. For 35 days of treatment, the number need to treat to prevent 1 event ranged from 55 to 481 for the 5 pairs, while the number needed to harm ranged from 455-1,067.

[2] = tested on: bleeding events in high-risk, medically ill subjects; conditions: human, in vivo
Description: The safety objectives were to compare rivaroxaban with placebo in the following bleeding outcomes in high-risk, medically ill subjects: • Major bleeding using validated International Society on Thrombosis and Haemostasis (ISTH) bleeding criteria. • Non-major clinically relevant (NMCR) bleeding. • Other bleeding.
Safety assessment was based on bleeding events classified by validated ISTH criteria as major bleeding (principal safety outcome), NMCR bleeding, or Other bleeding. […] The safety outcome of NMCR bleeding was defined as overt bleeding not meeting ISTH criteria for major bleeding, but associated with medical intervention, unscheduled contact (visit or telephone call) with a physician, (temporary) cessation of study treatment, or associated with discomfort for the subject such as pain or impairment of activities of daily life. […] Overall safety was also assessed.
The principal safety outcome was major bleeding based on validated ISTH criteria. Treatments were compared using the same statistical model (i.e., Cox proportional hazards model) as that for the primary efficacy outcome. The same analyses were used for NMCR bleeding. Safety analyses were based on the safety analysis set and on-treatment analysis phase. Bleeding events were analyzed based on time from randomization to the first occurrence.

[3] = subpopulation, primary endpoint

SMILES: O=C(NC[C@H]1CN(c2ccc(N3CCOCC3=O)cc2)C(=O)O1)c1ccc(Cl)s1 [Rivaroxaban, 5-chloro-N-({(5S)-2-oxo-3-[4-(3-oxo-4-morpholinyl)phenyl]-1,3,oxazolidin-5-yl}methyl)-2-thiophenecarboxamide]
- Number-to-treat to benefit (NNT) to prevent one event ([1]; entire MAGELLAN population, primary endpoint): 77
- Fewer primary endpoint events in the rivaroxaban group ([1]; entire MAGELLAN population, through Day 35): 131 events
- Major bleeds caused ([1]; human, in vivo, 35 day): 18
- More major bleeds caused ([1]; human, in vivo, 35 day): 51
- Number needed to harm, range over 5 benefit-risk pairs ([1]; human, in vivo, 35 day): 455-1,067
- Number-to-treat to harm (NNH) ([1]; human, in vivo, 35 day): 560
- Events prevented [1, 3]: 182 events
- NNT [1, 3]: 55
- AEs with onset >2 days from stop of study drug, n (%) [2]: 419 (7.0) %
- Any AEs, n (%) ([2]; 45 days): 1438 (24.0) %
- Discontinued study drug permanently because of NMCR bleeding ([2]; 45 days): 0.7%
- Discontinued study drug permanently due to bleeding ([2]; 45 days): 1.1%
- Major and NMCR bleeding, event rate ([2]; 45 days): 1.71 100 pt-45 dy
- Major bleeding at a critical site, incidence ([2]; 45 days): 0.05%
- Major bleeding, event rate ([2]; 45 days): 0.28 100 pt-45 dy
- NMCR bleeding, event rate ([2]; 45 days): 1.43 100 pt-45 dy
- Other bleeding, event rate ([2]; 45 days): 0.91 100 pt-45 dy
- Post-baseline AEs, n (%) ([2]; 45 days): 1430 (23.9) %
- Post-baseline SAEs, n (%) ([2]; 45 days): 465 (7.8) %
- SAEs with onset >2 days from stop of study drug, n (%) ([2]; 45 days): 169 (2.8) %
- SAEs, n (%) ([2]; 45 days): 460 (7.8) %
- TEAE COPD ([2]; 45 days): 1.3%
- TEAE diarrhoea ([2]; 45 days): 1.1%
- TEAE headache ([2]; 45 days): 1.6%
- TEAEs, n (%) ([2]; 45 days): 1198 (20.0) %
- TESAEs, n (%) ([2]; 45 days): 337 (5.6) %
